In PubChem BioAssay AID720547 (The Scripps Research Institute Molecular Screening Center, 2013) one finds IC50 data, which are given here for 81 molecules.

Structures are written as SMILES. Calls of active or inactive are those of the source.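 How the source made its calls: active means compound flagged as a likely artifact in this counterscreen, with IC50 of 10 µM or lower; inactive means IC50 above 10 µM.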

This assay concerns HEK293 Gal4-VP16 luciferase reporter counterscreen, luminescence. In words: VP16-driven transactivation reporter suppression potency – cell-based, luminescence, HEK293, counter-screen for COUP-TFII inhibitor project, dose response (AID 720547).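 Further: potency for lowering the luciferase signal driven by Gal4-VP16.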 A general note: Counterscreens check selectivity or assay interference.

The IC50 is the concentration that inhibits the measured activity by half. With `Cc1ccc(S(=O)(=O)NCc2ccncc2)c(C)c1C`, the IC50 is > 85.5 µM (inactive).

On to `CC(C)(C)c1ccc(-c2nnc3sc(-c4ccccn4)nn23)cc1`, for which the IC50 is > 85.4 µM (inactive).

In the case of `Cc1ccc(F)cc1NC(=O)Cc1nn(C)c(=O)c2ccccc12`, the IC50 was > 85.4 µM (inactive). Turning to `CC(C)CC(NC(=O)CCCNC(=O)CCC(=O)OC1O[C@H]2OC3(C)CC[C@H]4[C@H](C)CCC(C1C)C24OO3)C(=O)O` (stereo partly specified), the IC50 is > 85.4 µM (inactive). The same measure for `Oc1ccc(-c2n[nH]c(C(F)(F)F)c2-c2ccccc2)c(O)c1`: > 85.4 µM (inactive). The same measure for `Cc1c(Cl)cccc1NC(=O)N1CCCN(c2nc(-c3ccccc3)ns2)CC1`: > 85.4 µM (inactive); for `CC(=O)c1ccc(N2CCN(C(=S)Nc3ccc(Oc4ccccc4)cc3)CC2)cc1`: > 85.4 µM (inactive). The same measure for `Cc1ccc(Cn2ncc3c(N4CCN(Cc5ccc(Cl)cc5)CC4)ncnc32)cc1`: > 85.4 µM (inactive). As for `Cc1cccc(Nc2nc(-c3c(C)nc4ccccn34)cs2)c1`, the IC50 was 66.3 µM (inactive). `COc1ccc(C(=O)C2CCN(c3ncnc4sccc34)CC2)cc1`: the IC50 is > 28.4 µM (inactive). `COc1ccccc1-[n+]1c(C)cc(/C=C2\Sc3ccccc3N2C)cc1C`: the IC50 is 27.8 µM (inactive).

In the case of `Cc1sc(NC(=O)CN2CCOCC2)nc1-c1ccc2c(c1)CCN2S(=O)(=O)c1ccccc1`, the IC50 is > 85.4 µM (inactive).

Take `Cc1ccc(-n2nc3c(=O)n(C(C)C(=O)NCCC4=CCCCC4)nc(C)c3c2C)cc1` (stereo unspecified): the IC50 was > 28.5 µM (inactive). The result for `COc1ccc(Cl)cc1Nc1nc(-c2sc(NC(=O)C(C)(C)C)nc2C)cs1` reads > 85.4 µM (inactive). The result for `Cc1c(C)n(Cc2ccccc2)c2ncnc(Cl)c12` reads > 85.4 µM (inactive). The same measure for `NC(=O)[C@H]1CC2(CC(c3cccc(NC(=O)COc4ccc(Cl)cc4)c3)=NO2)CN1C(=O)Cc1ccc([N+](=O)[O-])cc1` (stereo partly specified): > 85.5 µM (inactive). For the molecule `COc1cc(NC(=O)COc2cc(O)c3c(c2)OC(C)(C)CC3=O)cc(OC)c1OC`, the IC50 is > 28.5 µM (inactive).

Turning to `Cc1nc2ccccc2n1Cc1ccc(Cl)cc1`, the IC50 is > 85.4 µM (inactive).

With `Cc1cccc(Nc2nc(NCc3ccco3)c3ccccc3n2)c1`, the IC50 was 53 µM (inactive). The result for `COc1cc(N(C)C)ccc1C=c1c2ccccc2n2c1cc(-c1ccccc1)[n+]2C` reads 26.3 µM (inactive). The result for `COC(=O)C1=C(c2ccc(-c3ccccc3)c(F)c2)C[C@@H]2CC[C@H]1N2C(=O)N1CCCC1` reads > 85.4 µM (inactive); that for `Cn1c(=O)c2[nH]c(CCCCCCCCc3nc4ccccc4[nH]3)nc2n(C)c1=O`, > 28.5 µM (inactive). The same measure for `CCOC(=O)C1CCCN(S(=O)(=O)c2ccc(S(=O)(=O)N(CC)CC)cc2)C1` (stereo unspecified): > 85.4 µM (inactive).

Take `CC(=O)c1cn(CCOc2ccccc2C)c2ccccc12`: the IC50 was > 85.4 µM (inactive). The same measure for `OC[C@@H]1CN(Cc2ccc(-c3ccccc3)cc2)C[C@H](n2cnc3c(NC4CCCC4)ncnc32)O1`: 53.4 µM (inactive); for `OC[C@@H]1CN(Cc2ccc(-c3ccccc3)cc2)C[C@H](n2cnc3c(NCc4ccc(F)cc4)ncnc32)O1`: 83.4 µM (inactive). The result for `Fc1ccc(-n2nnnc2-c2cnc(-c3cccs3)nc2C(F)(F)F)cc1` reads 33.4 µM (inactive). The same measure for `CCOC(=O)N1CCN(C(=O)CSCC(=O)Nc2nc(-c3ccc(-c4ccccc4)cc3)cs2)CC1`: > 28.4 µM (inactive); for `N=c1ccn(CC(=O)c2ccc(-c3ccccc3)cc2)cc1`: > 85.4 µM (inactive); for `Cc1cc2c(=Cc3ccc(N(C)C)cc3)c3ccccc3n2[n+]1C`: 36.5 µM (inactive).

`Cc1sc2ncnc(NCC3COc4ccccc4O3)c2c1C` (stereo unspecified): the IC50 was > 85.4 µM (inactive).

For `Cc1ccc(-c2cn(-c3ccccc3)c3[n+]2CCCS3)cc1`, the IC50 was > 85.4 µM (inactive). In the case of `Fc1ccc(NC(=S)N2CCCN(c3ccc(C(F)(F)F)cn3)CC2)c(F)c1`, the IC50 was > 85.4 µM (inactive).

`O=C(CSc1nnc(Cn2nnc3ccccc32)o1)N(Cc1ccc(Cl)cc1)c1ccccc1`: the IC50 was > 85.4 µM (inactive). The same measure for `COC(=O)C1CCCCN1C(=O)c1cc(COc2cccc3cnccc23)on1` (stereo unspecified): > 85.4 µM (inactive); for `COCCn1c(C)c(C)c2c(NCCc3ccccc3)ncnc21`: > 85.3 µM (inactive); for `Cc1ccc(Cl)cc1S(=O)(=O)N1CCC(C(=O)NC2CCN(Cc3ccccc3)CC2)CC1`: > 85.4 µM (inactive). The same measure for `CCOc1ccc(S(=O)(=O)NCc2ccncc2)cc1`: > 85.4 µM (inactive); for `Cc1nn(C)c(C)c1CN(C)S(=O)(=O)c1ccc2ccccc2c1`: > 85.4 µM (inactive).

Turning to `Cc1cc(C)c(CN2CCN(C(=O)Cn3cnc4c(OCc5ccccc5)ncnc43)CC2)c(C)c1`, the IC50 is > 85.3 µM (inactive). The same measure for `Cn1nccc1C(=O)NC1CCCc2c1cnn2-c1ccc(C(C)(C)C)cc1` (stereo unspecified): > 85.4 µM (inactive); for `CCc1ccc(CN(C)C(=O)c2cc(COc3cccc4cnccc34)on2)cc1`: > 85.4 µM (inactive); for `C=CCC1(CC=C)CCCN1C(=O)c1cc(COc2ccc(C)nc2)on1`: > 85.4 µM (inactive).

For `O=C(c1ccccc1)C1CCN(c2ncnc3sccc23)CC1`, the IC50 is > 85.5 µM (inactive). For `CC1C(OC(=O)CCC(=O)NC(C)(C)CO)O[C@H]2OC3(C)CC[C@H]4[C@H](C)CCC1C24OO3` (stereo partly specified), the IC50 is > 85.4 µM (inactive). The result for `CC(C)(C)c1ccc(-c2cc(-c3ccccc3O)[nH]n2)cc1` reads 36.6 µM (inactive); that for `O=C(CSc1cc(Cl)ccc1Cl)N/N=C/c1ccc[nH]1`, > 85.4 µM (inactive); that for `COc1ccc(-c2ccc3oc(-c4ccc(OC)cc4)c(C#CCO)c3c2)cc1`, > 85.4 µM (inactive). The same measure for `Cc1cc(C(=O)NC2CCCc3c2cnn3-c2ccc(C)c(C)c2)n(C)n1` (stereo unspecified): > 85.4 µM (inactive); for `COc1ccc(CCNC(=O)C(C)n2nc(C)c3c(C)n(-c4ccc(C)cc4)nc3c2=O)c(OC)c1` (stereo unspecified): > 28.5 µM (inactive).

Take `Cc1cc(C)c(CN2CCN(C(=O)Cn3cnc4c(NCc5ccccc5)ncnc43)CC2)c(C)c1`: the IC50 was > 85.4 µM (inactive). The same measure for `CC(C)OCCCNc1ncnc2c1[nH]c1ccc(F)cc12`: > 85.4 µM (inactive).

Take `COc1ccc(CCNc2ncnc3sc(C)cc23)cc1OC`: the IC50 is > 28.5 µM (inactive). The result for `CCc1cc(-c2nnn(CCC3COCCO3)c2CC)ccc1-c1cn(Cc2ccc3ccccc3c2)nn1` (stereo unspecified) reads > 85.4 µM (inactive).

With `COc1ccc(/C=N/OCC(=O)NC(c2ccccc2)c2ccccc2)cc1OC`, the IC50 was > 85.4 µM (inactive).

For `COc1ccc(CNC(=O)c2cccc3c(-c4cccnc4)coc23)cc1OC`, the IC50 was 43.4 µM (inactive).

On to `N#CCSc1nnc(-c2sc3ccccc3c2Cl)o1`, for which the IC50 is 85.9 µM (inactive).

Take `c1ccc2cc3[nH]c(CNc4nc(N5CCOCC5)nc5c4ncn5-c4ccsc4)nc3cc2c1`: the IC50 is > 85.3 µM (inactive). The result for `Oc1ccc(-[n+]2c(-c3ccccc3)cc(-c3ccccc3)cc2-c2ccccc2)cc1` reads 12.6 µM (inactive).

`Cc1c(/C(O)=C2/C(=O)C(=O)N(CCN3CCOCC3)C2c2ccco2)cnn1-c1ccccc1` (stereo unspecified): the IC50 is 21.3 µM (inactive). The result for `COc1ccc(CCNc2ncnc3c2oc2ccccc23)cc1OC` reads 56.8 µM (inactive); that for `CCC(C)C(NC(=O)CCCNC(=O)CCC(=O)OC1O[C@H]2OC3(C)CC[C@H]4[C@H](C)CCC(C1C)C24OO3)C(=O)O` (stereo partly specified), > 85.4 µM (inactive). The same measure for `CCN(CC)S(=O)(=O)c1ccc(/C=C/C(=O)Nc2ccc(Br)cc2F)cc1`: > 85.4 µM (inactive). The same measure for `CCSc1nc2ccccc2n1C(=O)/C=C/c1ccc(OC)c(OC)c1`: 19.4 µM (inactive); for `COc1ccc(C2=Nn3c([n+](C)c4ccccc43)SC2)cc1`: > 85.4 µM (inactive); for `CC(C)(C)OC(=O)NCCCCCc1cn([C@@H](CO)C(=O)NCCCCCCCCCCC(=O)N2CCN(C(=O)OC(C)(C)C)CC2)nn1`: 13.3 µM (inactive). For `C=CC[n+]1c(-c2ccc(Cl)cc2Cl)csc1Nc1c(C)n(C)n(-c2ccccc2)c1=O`, the IC50 is > 85.4 µM (inactive). The same measure for `COc1ccc(C(=O)Nc2ccccc2C(=O)N/N=C/c2ccc(O)c(OC)c2)cc1`: > 28.5 µM (inactive); for `Cc1ccc(C(=O)NC2CCCc3c2cnn3-c2ccc(F)cc2F)cn1` (stereo unspecified): > 85.4 µM (inactive). The result for `Cc1cc(NC2CCCC2)n2ncc(-c3ccccc3)c2n1` reads 62.9 µM (inactive); that for `Cn1nc(CC(=O)Nc2ccc(N3CCN(C(=O)OC(C)(C)C)CC3)cc2)c2ccccc2c1=O`, 81.2 µM (inactive); that for `CCCCCCn1c(NCC)nc2c1c(=O)n(C)c(=O)n2C`, > 85.4 µM (inactive). The result for `Cc1nc2c(-c3ccc(Cl)cc3)cnn2c(N)c1-c1ccc(F)cc1` reads > 85.4 µM (inactive); that for `OC[C@@H]1CN(Cc2ccc(-c3ccccc3)cc2)C[C@H](n2cnc3c(NC4CCC4)ncnc32)O1`, 64.1 µM (inactive); that for `O=c1c2ccccc2oc2cc(C#CC3(O)CCCCC3)ccc12`, 56.2 µM (inactive).

Turning to `CCC1CCCCN1C(=O)c1cc(COc2ccc3ncccc3c2)on1` (stereo unspecified), the IC50 is > 85.4 µM (inactive). The result for `CC(=O)c1c(C)[nH]c(C(=O)OCC(=O)Nc2ccc(Cl)cc2[N+](=O)[O-])c1C` reads > 85.4 µM (inactive); that for `CCN1/C(=C\c2ccc3ccccc3[n+]2CC)Sc2cc(C)ccc21`, 53.9 µM (inactive); that for `CCOc1ccc(-n2c(-c3ccccc3)c[n+]3c2CCCCC3)cc1`, > 85.4 µM (inactive). The result for `Cc1cc(/C=C2\Sc3ccccc3N2C)cc(C)[n+]1CC1CCCO1` (stereo unspecified) reads > 85.4 µM (inactive). The same measure for `COc1ccc(-c2csc(NC(=O)C3CCN(c4ncnc5sc(C)c(C)c45)CC3)n2)cc1OC`: 25.7 µM (inactive).
